Assay results taken from patent US20110160303A1, “N-ALKYLCARBONYL-AMINO ACID ESTER AND N-ALKYLCARBONYL-AMINO LACTONE COMPOUNDS AND THEIR USE” (Edward Tak WEI, priority 2005, published 2011).

Key:
[1] = Octanol/water partition coefficient; format: physicochemical
Method: The octanol/water partition coefficients (given in log P units) for a number of compounds were determined and are shown in Table 7, together with the threshold for cooling on the tongue tested at 40 mM. […] A longer duration of action was not precisely matched with log P values.

skin above the upper lip = assay: Cooling sensation on facial skin, ointment applied to skin above the upper lip; format: in vivo, human; design: key to refreshing cooling and absence of skin irritation or eye irritation (“perfect cool”): (*) denotes compounds with refreshing cooling and absence of skin irritation or eye irritation after facial skin or periorbital applications; a “perfect cool.”; conditions: for Duration of Skin Cooling: 40 mM (1% wt/vol) ointment; for Duration of Skin Cooling / Duration of Action On-Off (minutes): On (onset) / Duration of Action On-Off (minutes): duration (offset minus onset) / Duration of Action On-Off (minutes): Off (offset): skin above upper lip; for Duration of Action On-Off (minutes): On (onset): 40 mM (~1% wt/vol) Aquaphor ointment, 40 to 70 mg, time to reach 2 units of coolness; for Duration of Action On-Off (minutes): duration (offset minus onset) / Duration of Action On-Off (minutes): Off (offset): 40 mM Aquaphor ointment; for Duration of Action On-Off (minutes): Off (offset): time when coolness drops below 2 units; for refreshing cooling and absence of skin irritation or eye irritation (“perfect cool”): after facial skin or periorbital applications
Text: A reliable place for topical application is the skin above the upper lip (above the vermilion border of the lips), on the philtrum, lateral to the philtrum until the nasolabial folds, and on the lower nostrils (subnasale). This part of the face is known to be densely innervated with cold receptors, second only to the surfaces of the eyeball and anogenitalia. A second location is on or below the malar eminence (cheekbone). The skin above the cheekbone is thicker than above the lips, and therefore has a higher threshold for activation. At both loci, tingling, cool and cold sensations in the skin may be experienced and rated for time of onset and intensity.
The intensity of the subjective skin sensation is rated as 0, 1, 2 or 3 with: 0 as no change; 1 as slight coolness, cold, or tingling; 2 as clear-cut signal of coolness, cold, or tingling; and 3 as robust cooling or cold. The intervals for recording sensations are 5 to 10 minutes, until two successive zeroes are obtained. The results (shown in FIGS. 1 and 2) are averaged values of 4 to 6 separate trials in the same individual. The data are plotted using SigmaPlot® (Systat Software, Point Richmond Calif.) and a smoothing function with a negative exponential was used for analysis and statistical fit of the results. Confirmatory trials of cooling action of the long-acting NACE compounds were obtained in 2 to 4 individuals but not quantified for some because of the large number of chemicals that were evaluated.
(§1) The onset of drug action is taken as the time to reach 2 units of coolness intensity, and offset of drug action is the time when coolness intensity drops below 2, after previously surpassing 2 units. The duration of cooling action is defined as the offset time minus the onset time. […] The quality of the sensation is noted, for example, as pure refreshing coolness, or if the sensation is accompanied by irritation (stinging or burning). The quality of the sensation is not rated for intensity.
For bioassay on the skin, approximately 30 mg was stirred and dissolved in 3 g of warm liquid Aquaphor® ointment to a yield a 40 mM (˜1% wt/vol) ointment. The exact amount was adjusted so that the molar equivalent was about 35 to 40 mM. After cooling, 40 to 70 mg of the solid ointment was placed on the tip of a plastic stick and applied to the skin above the upper lip, on the philtrum, and lateral to the philtrum, up to the nasolabial folds, of test subjects and the onset and duration of cooling sensations noted.
The intensity of the subjective skin sensation was rated as 0, 1, 2 or 3 with: 0 as no change; 1 as slight coolness, cold, or tingling; 2 as clear signal of coolness, cold, or tingling; and 3 as robust cooling or cold. The intervals for recording sensations were 5 to 10 minutes, until two successive zeroes were obtained. The results (shown in FIGS. 1 and 2) are averaged values of 4 to 6 separate trials in the same individual. The data are plotted using SigmaPlot® (Systat Software, Point Richmond, Calif., USA) and a smoothing function with a negative exponential was used for analysis and statistical fit of the results.
as §1, with “was” for “is”, “was also noted: such” for “is noted, for example,”
Test compounds were singly applied to the skin above the upper lips at a 40 to 70 mg dose of a 1% wt/vol ointment.

oral cavity = assay: Oral cavity test, substance placed on dorsal surface of the tongue; format: in vivo, human; conditions: Study 7, 2 mg per dose
Method: The subject is instructed to close and hold the substance in the mouth for at least 10 seconds and not to swallow. The description of sensations is then recorded at 5 minute intervals.
The compounds of Formula (1) and (2) are white crystalline solids at room temperatures. These compounds were tested as such, or mixed 1:1 with powdered or granulated sugar. The test substances were applied at 1 to 5 mg on the mid-point of the dorsal surface of the tongue using a metal spatula or a plastic applicator. After depositing the test substance on the tongue, the subject was instructed to keep the mouth closed and allow the fluids of the mouth to inter-mix with the test substance and to distribute it to the back of the mouth (oropharynx). The presence and duration of subjective sensations from the mouth was then noted.
In normal subjects, the effects of the D-Ala methyl and ethyl ester compounds falling within Formula (1) ((R)-2-[((1R,2S,5R)-2-isopropyl-5-methyl-cyclohexanecarbonyl)-amino]-propionic acid methyl or ethyl ester)) were examined. Three doses of 1, 2 and 4 mg per application were examined and compared to a similar dose of the L-Ala methyl or ester analog ((S)-2-[((1R,2S,5R)-2-isopropyl-5-methyl-cyclohexanecarbonyl)-amino]-propionic acid methyl or ethyl ester). At the 2 or 4 mg dose, all compounds produced pleasant and robust cooling sensations on the tongue, extending down to the back of throat, and lasted for about 30 minutes and longer. The onset effect was usually within 30 seconds of application.

tongue = assay: Threshold for cooling on the tongue; format: in vivo, human; conditions: threshold for cooling on the tongue
Method: Watson et al. (U.S. Pat. No. 4,178,459) tested the properties of N-substituted p-menthane carboxamides on volunteers by putting filter paper (1×1 cm), impregnated with a known amount of compound, onto the dorsal surface of the tongue of the test subject. After 30 seconds, the subject was required to report presence or absence of a cooling effect. […] The average threshold of (−)-menthol for 6 subjects was 0.25 μg, but there was a 100-fold variation in individual sensitivity. As noted above, coolness signals detected from the dorsal surface of the tongue may be confounded by gustatory, olfactory, and other variables, as well as by dilution from saliva. The octanol/water partition coefficients (given in log P units) for a number of compounds were determined and are shown in Table 7, together with the threshold for cooling on the tongue tested at 40 mM. […] A longer duration of action was not precisely matched with log P values.

Row | logP [1] | Log P [1] | SMILES | Duration of Skin Cooling (skin above the upper lip) | Duration of Action On-Off (minutes): On (onset) (skin above the upper lip) [min] | Duration of Action On-Off (minutes): duration (offset minus onset) (skin above the upper lip) | Duration of Action On-Off (minutes): Off (offset) (skin above the upper lip) [min] | refreshing cooling and absence of skin irritation or eye irritation (“perfect cool”) (skin above the upper lip) | cooling sensation at the back of the throat (oral cavity) | Threshold tongue (tongue) [µg]
1 | – | 5.8 | CCOc1ccc(NC(=O)C2CC(C)CCC2C(C)C)cc1 (stereo not drawn) [CPS-306] | not active | – | inactive | – | – | – | –
2 | – | 6.9 | CCCCOc1ccc(NC(=O)C2CC(C)CCC2C(C)C)cc1 (stereo not drawn) [CPS-308] | not active | – | inactive | – | – | – | –
3 | – | 5.0 | COc1ccc(NC(=O)C2CC(C)CCC2C(C)C)c(OC)c1 (stereo not drawn) [CPS-309] | 0.6 h | 13 | 37 min | 50 | – | – | –
4 | – | 6.3 | CCCOc1ccc(NC(=O)C2CC(C)CCC2C(C)C)cc1 (stereo not drawn) [CPS-310] | not active | – | inactive | – | – | – | –
5 | – | 4.1 | CC1CCC(C(C)C)C(C(=O)NC(C)C)C1 (stereo not drawn) [WS-10, reference compound] | 0.3 h | 6 | 19 min | 25 | – | – | 0.4
6 | – | 4.6 | CCC(C)NC(=O)C1CC(C)CCC1C(C)C (stereo not drawn) [WS-34, reference compound] | not active | – | inactive | – | – | – | 0.7

More lines, now with the values behind:

Row | SMILES | logP [1] | Log P [1] | Duration of Skin Cooling (skin above the upper lip) | Duration of Action On-Off (minutes): On (onset) (skin above the upper lip) [min] | Duration of Action On-Off (minutes): duration (offset minus onset) (skin above the upper lip) | Duration of Action On-Off (minutes): Off (offset) (skin above the upper lip) [min] | refreshing cooling and absence of skin irritation or eye irritation (“perfect cool”) (skin above the upper lip) | cooling sensation at the back of the throat (oral cavity) | Threshold tongue (tongue) [µg]
7 | CC(C)[C@@H]1CC[C@@H](C)C[C@H]1C(=O)NC1CCOC1=O (mixture of isomers) [racemic Hsl, (1R,2S,5R)-2-isopropyl-5-methyl-cyclohexanecarboxylic acid (2-oxo-tetrahydro-furan-3-yl)-amide] | 2.5 | – | 1.4 h | 2 | 84 min | 86 | racemic Hsl (*) | robust and prolonged cooling | –
8 | CC(C)[C@@H]1CC[C@@H](C)C[C@H]1C(=O)N[C@@H]1CCOC1=O [D-Hsl, (1R,2S,5R)-2-isopropyl-5-methyl-cyclohexanecarboxylic acid ((R)-2-oxo-tetrahydro-furan-3-yl)-amide] | 2.5 | – | 1.3 h | 2 | 78 min | 80 | D-Hsl (*) | robust and prolonged cooling | –
9 | COC(=O)CCC(NC(=O)C1CC(C)CCC1C(C)C)C(=O)OC (stereo not drawn) [Glu(OMe) Me Ester] | – | 2.2 | not active | – | not active | – | – | – | –
10 | COC(=O)CNC(=O)C1CC(C)CCC1C(C)C (stereo not drawn) [Gly Me Ester (WS-31), reference compound] | – | 2.4 | 0.3 h | 5 | 20 min | 25 | – | – | 0.6
11 | CCOC(=O)C(C)NC(=O)C1CC(C)CCC1C(C)C [L-Ala Et Ester] | – | 3.1 | 0.7 h | 8 | 44 min | 52 | – | – | 0.4
12 | COC(=O)C(C)NC(=O)C1CC(C)CCC1C(C)C [L-Ala Me Ester] | – | 2.8 | 1.3 h | 1 | 79 min | 80 | – | – | 0.6
13 | CC(C)[C@@H]1CC[C@@H](C)C[C@H]1C(=O)N[C@H]1CCOC1=O [L-Hsl, (1R,2S,5R)-2-isopropyl-5-methyl-cyclohexanecarboxylic acid (S)-(2-oxo-tetrahydro-furan-3-yl)-amide] | 2.5 | – | 1.4 h | 2 | 85 min | 87 | L-Hsl (*) | robust and prolonged cooling | –
14 | COC(=O)C(NC(=O)C1CC(C)CCC1C(C)C)C(C)C [L-Val Me Ester] | – | 4.2 | not active | – | not active | – | – | – | –
15 | COC(=O)C1CCCN1C(=O)[C@@H]1C[C@H](C)CC[C@H]1C(C)C (stereo partly drawn) [Pro Me Ester] | 3.3 | – | not active | – | not active | – | – | – | –
16 | CCOC(=O)CCNC(=O)C1CC(C)CCC1C(C)C (stereo not drawn) [β-Ala Et Ester] | – | 3.1 | 1.4 h | 3 | 87 min | 90 | – | – | 1.5
